The values below come from paper PMC5526870, “Fragment optimization for GPCRs by molecular dynamics free energy calculations: Probing druggable subpockets of the A2A adenosine receptor binding site” (Scientific Reports, 2017).

Usually Ki stands for a dissociation constant, usually derived from enzyme kinetics or from competition with a known ligand. The term inhibition denotes the drop in the measured response relative to a control, in per cent.

The target in assay [1] is T1, human A2AAR (Homo sapiens, UniProt P29274).
T1 construct: expressed in transfected cells; host or cells: CHO cells
T1 sequence (P29274 whole entry): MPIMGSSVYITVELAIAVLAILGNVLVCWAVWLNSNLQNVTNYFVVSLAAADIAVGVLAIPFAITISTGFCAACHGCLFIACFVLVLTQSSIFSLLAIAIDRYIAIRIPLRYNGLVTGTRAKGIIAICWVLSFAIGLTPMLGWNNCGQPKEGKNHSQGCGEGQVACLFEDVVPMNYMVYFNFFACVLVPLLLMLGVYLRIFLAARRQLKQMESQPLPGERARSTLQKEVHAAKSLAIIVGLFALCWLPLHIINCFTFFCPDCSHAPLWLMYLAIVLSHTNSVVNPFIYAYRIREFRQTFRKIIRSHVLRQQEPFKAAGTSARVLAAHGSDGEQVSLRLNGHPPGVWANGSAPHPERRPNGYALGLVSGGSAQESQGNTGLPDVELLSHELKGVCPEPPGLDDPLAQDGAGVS
Conditions: 95% confidence interval in brackets, cited from earlier work.

For assay [2], the target named is T1, human A2AAR. Nature of the assay: Radioligand binding assay, antagonist [3H]ZM241385 (1.0 nM), membranes of CHO or HEK293 cells, compounds 25-36. Conditions: for Ki / inhibition at 300 µM: [3H]ZM241385, mean ± standard error, n=3; for Ki: read-out: Ki A2A; for fold increase of affinity compared to compound 32: experimentally determined, A2AAR; for inhibition at 300 µM: read-out: % inhibition at 300 µM A2A (displacement of radioligand binding). The method, then:
(§1) Radioligand binding assays for compounds 25–36 were performed as previously described[61] using membrane preparations from Chinese hamster ovary (CHO) or human embryonic kidney (HEK)293 cells stably expressing the human A1, A2A or A3AR. The following radioligands: antagonist [^3H]DPCPX (0.5 nM); antagonist [^3H]ZM241385 (1.0 nM); and agonist [^125I]AB-MECA (0.2 nM) were used for A1, A2A, and A3ARs, respectively. Binding parameters were calculated using Prism 6 software (GraphPAD, San Diego, CA, USA). IC50 values obtained from competition curves were converted to Ki values using the Cheng-Prusoff equation. Data were expressed as mean ± standard error. The radioligand binding assays for compounds 18, 20, 21, and 23 were performed as previously described. Each Ki value was determined from at least three independent experiments.
(§2) Supplementary Table S2. Experimental data for compounds 25-36. Radioligand binding
(§3) assays were performed using membranes of mammalian cells overexpressing one AR subtype.
(§4) aData are expressed as mean ± standard error resulting from three independent experiments.

A further assay deals with T2, human A1AR (Homo sapiens, UniProt P30542).
T2 construct: expressed in transfected cells; host or cells: CHO or HEK293 cells (membrane preparations)
T2 sequence (P30542 1-326): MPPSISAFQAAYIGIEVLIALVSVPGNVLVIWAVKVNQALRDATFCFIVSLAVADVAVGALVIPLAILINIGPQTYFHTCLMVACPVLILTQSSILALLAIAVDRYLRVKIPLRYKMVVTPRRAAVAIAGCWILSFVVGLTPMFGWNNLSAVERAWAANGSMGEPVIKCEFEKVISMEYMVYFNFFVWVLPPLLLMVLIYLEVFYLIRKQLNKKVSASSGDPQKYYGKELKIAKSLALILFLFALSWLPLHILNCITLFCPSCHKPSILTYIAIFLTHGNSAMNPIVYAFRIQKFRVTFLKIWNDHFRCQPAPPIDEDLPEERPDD
The assay can be described thus: Radioligand binding assay, antagonist [3H]DPCPX (0.5 nM), membranes of CHO or HEK293 cells. The note with it: for inhibition at 300 µM: read-out: % inhibition at 300 µM A1. The protocol: Binding parameters were calculated using Prism 6 software (GraphPAD, San Diego, CA, USA). IC50 values obtained from competition curves were converted to Ki values using the Cheng-Prusoff equation. Data were expressed as mean ± standard error. […] Each Ki value was determined from at least three independent experiments.
Supplementary Table S2. […] Radioligand binding
as §3

The target in a further assay is T3, human A3AR (Homo sapiens, UniProt P0DMS8).
T3 construct: expressed in transfected cells; host or cells: CHO or HEK293 cells (membrane preparations)
T3 sequence (P0DMS8 1-318): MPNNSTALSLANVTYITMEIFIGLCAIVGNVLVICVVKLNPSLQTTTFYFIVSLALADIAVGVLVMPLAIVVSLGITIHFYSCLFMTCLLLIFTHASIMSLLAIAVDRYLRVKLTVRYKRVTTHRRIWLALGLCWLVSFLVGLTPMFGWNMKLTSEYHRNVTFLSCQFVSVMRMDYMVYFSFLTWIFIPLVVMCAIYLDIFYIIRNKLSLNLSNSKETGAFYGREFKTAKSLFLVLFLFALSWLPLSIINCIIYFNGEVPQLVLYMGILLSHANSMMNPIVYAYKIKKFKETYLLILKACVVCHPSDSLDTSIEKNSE
The assay can be described thus: Radioligand binding assay, agonist [125I]AB-MECA (0.2 nM), membranes of CHO or HEK293 cells. The note with it: for Ki: mean ± standard error, n=3, read-out: Ki A3; for inhibition at 300 µM: read-out: % inhibition at 300 µM A3, 300 µM, mean ± standard error, n=3. The protocol: as §1, §2, §3, §4

Assay [3] concerns the target T1, human A2AAR. Nature of the assay: Radioligand binding assay at the A2AAR for adenine derivatives 1-23 (displacement of [3H]NECA, CHO cells). The protocol:
as §1
Supplementary Table S1. Binding data for compounds 1-23. […]
aKi value from Lambertucci et al.1 bKi value from Volpini et al.2 cDisplacement of specific [3H]NECA binding at human A2AAR expressed in CHO cells measured in this work.
Data is expressed as geometric means with 95% confidence limits (n=3-6). […]

Assay [4] concerns the target T1, human A2AAR. Nature of the assay: Functional assay: inhibition of NECA-induced cAMP production (GloSensor) in CHO cells. In kind it is cell-based. Conditions: against 1 µM NECA, CHO cells expressing human A2AAR. (Changes in cAMP serve as a functional read-out for many G protein-coupled receptors.)
Experimental: CHO cells, stably transfected with the human A2AAR and transiently with firefly luciferase biosensor, were grown adherently and maintained in Dulbecco’s Modified Eagles Medium with nutrient mixture F12 (DMEM/F12 with phenol red), supplemented with 10% FBS (Fetal Bovine Serum), 100 U/mL penicillin, 100 µg/mL streptomycin, 2.5µg/mL amphotericin, 1 mM Sodium pyruvate, and 0.1 mg/mL Geneticin (G418) at 37 °C, and aerated with 5% CO2: 95% O2. Cells were harvested in CO2 independent media and counted in a Neobauer chamber. The desiderate cell number was incubated in equilibration medium containing a 3% v/v GloSensor cAMP reagent stock solution, 10% FBS and 87% CO2 independent medium. After 2 hours of incubation cells were dispensed in wells of 384 well plate and when a steady-state basal signal was obtained, different concentrations of antagonists were added. After 10 min, 1 µM of 5′-N-ethylcarboxamidoadenosine (NECA), the reference agonist, was injected. Responses were expressed as percentage of the Maximal Relative Luminescence Units (RLU). Inhibition-response curves were fitted by a non-linear regression using a Prism 4.0 program (GraphPad Software, San Diego, CA, USA).
The mark [5] stands for this setting: displacement of specific [3H]NECA binding at human A2AAR expressed in CHO cells, measured in this work.
[6] abbreviates: [3H]DPCPX, mean ± standard error, n=3, read-out: Ki A1.
The mark [7] stands for this setting: [3H]DPCPX, mean ± standard error, n=3.

“And” between values parts separate entries of the source, which are not always exact repeats. Equal values may be shown once. Read-outs that look alike come from different tables or passages of the source.

On to `Nc1ncnc2c1nc(Br)n2C1CCCC1` [Compound 14], for which the Ki at human A2AAR [1] (ref Lambertucci et al. [22]) is 1.9 µM.
Consider `Nc1ncnc2c1ncn2CCO` [Compound 10], for which, on human A2AAR [1] (ref Lambertucci et al. [22]), the Ki was 11 µM.
For the compound `CSc1nc2ncnc(N)n2n1` [Compound 27], the Ki at human A2AAR [2] is 20 µM; on human A1AR it was 97.3 ± 3.5 µM; on human A3AR, 119 ± 42 µM.
As to `CCn1cnc2c(N)ncnc21` [Compound 9], the Ki at human A2AAR [1] (ref Lambertucci et al. [22]) is 2.2 µM.
For `Cn1c(Br)nc2c(N)ncnc21` [Compound 3], the “experimental improvement in binding free energy, compound 3 versus compound 2” value on human A2AAR [3] (C8-bromine addition) is on record as 2.4 kcal/mol. Also, the “fold increase in affinity compared to compound 2” value on human A2AAR [3] (C8-bromine versus unsubstituted compound 2) is 58 fold. Further, the “experimental improvement of binding affinity, compound 3 versus compound 4” value on human A2AAR [3] (addition of N9-methyl group) came to 2.0 kcal/mol.
Consider `CCn1c(C)nc2c(N)ncnc21` [Compound 18], for which the “fold increase of binding affinity compared to compound 9” value on human A2AAR [3] (C8-methyl substituent) is 10 fold. The compound also displayed an inhibitory constant (Ki) at human A2AAR [3] (setting [5]) of 0.218 ± 0.061 µM.
On human A2AAR [3] (setting [5]), `CCn1c(O)nc2c(N)ncnc21` [Compound 20] showed a Ki of 1.14 ± 0.29 µM.
With `CC(=O)Nc1nc2c(C)cccc2s1` [Compound 33], the Ki was determined as 10.7 ± 2.3 µM on human A2AAR [2], 17 ± 1.2 µM at human A1AR (setting [6]) and 2.3 ± 0.5 µM on human A3AR. Further, the “fold increase of affinity compared to compound 32” value (from here on “fold increase of affinity”) at human A2AAR [2] is reported as 7 fold.
In the case of `COc1cccc2sc(NC(C)=O)nc12` [Compound 36], the figures for the Ki at human A2AAR [2], at human A1AR (setting [6]) and on human A3AR were 1.8 ± 0.05 µM, 7.8 ± 0.5 µM and 1 ± 0.2 µM, respectively. Further, at human A2AAR [2] (corresponding to the 44-fold increase), the “experimental increase of affinity compared to compound 32, as free energy” value is given as 2.3 kcal/mol. Moreover, the “fold increase of affinity” value at human A2AAR [2] came to 44 fold.
Regarding `CCOc1nc2c(N)ncnc2n1CC` [Compound 22], at human A2AAR [4], the “inhibition of A2AAR mediated cAMP production” value is “close to completely inhibit the agonist effect of 1 µM NECA”. In addition, the inhibition constant (Ki) on human A2AAR [1] (ref Volpini et al. [23]) was 0.046 µM.
For `Nc1ncnc2ncnn12` [Compound 25, [1,2,4]triazolo[1,5-a][1,3,5]triazin-7-amine], the results for the inhibition at 300 µM on human A2AAR [2], on human A1AR (setting [7]) and on human A3AR were 34%, 27 ± 4% and 39 ± 2%, respectively.
For `CC(C)c1nc2c(N)cccn2n1` [Compound 31], the Ki turned out to be 223 µM on human A2AAR [2], 50.1 ± 22.6 µM at human A1AR and 102 ± 32 µM on human A3AR.
On to `Cn1cnc2ncnc(N)c21` [Compound 1], for which the Ki on human A2AAR [1] (ref Lambertucci et al. [22]) is more than 100 µM.
As for `CCCn1c(Br)nc2c(N)ncnc21` [Compound 7], the Ki on human A2AAR [1] (ref Lambertucci et al. [22]) is 0.3 µM.
Consider `CCn1c(Br)nc2c(N)ncnc21` [Compound 5], for which, at human A2AAR [4], the “inhibition of A2AAR mediated cAMP production” value is “close to completely inhibit the agonist effect of 1 µM NECA”. Further, the Ki at human A2AAR [1] (ref Lambertucci et al. [22]) was 0.052 µM.
Consider `Nc1ncnc2c1ncn2C1CCCC1` [Compound 15], for which, on human A2AAR [1] (ref Lambertucci et al. [22]), the Ki was 1.8 µM.
With `CC(C)Cn1c(Br)nc2c(N)ncnc21` [Compound 8], at human A2AAR [1] (ref Lambertucci et al. [22]), the Ki is 6 µM.
In the case of `CC(=O)Nc1nc2cc(C)ccc2s1` [Compound 34], the Ki at human A2AAR [2] stood at 11.6 ± 1.2 µM; on human A1AR (setting [6]), 8.4 ± 0.9 µM; on human A3AR, 1.1 ± 0.2 µM. For the same compound, the “fold increase of affinity” value at human A2AAR [2] was found to be 7 fold.
As to `C=CCCn1cnc2c(N)ncnc21` [Compound 17], the Ki at human A2AAR [1] (ref Lambertucci et al. [22]) is 8.5 µM.
For the compound `CC(=O)Nc1nc2ccc(C)cc2s1` [Compound 35], the Ki at human A2AAR [2] amounted to 48.6 ± 2.6 µM; at human A1AR (setting [6]), 17.8 ± 1.7 µM; at human A3AR, 2.9 ± 0.4 µM. The “fold increase of affinity” value on human A2AAR [2] is recorded as “two-fold increase of affinity”.
Turning to `CCc1nc2c(N)cccn2n1` [Compound 30], at human A2AAR [2], the inhibition at 300 µM stood at 49%. Also, the Ki was determined as 97.2 ± 22.5 µM at human A1AR and 110 ± 17 µM on human A3AR.
On to `Nc1ncnc2c1ncn2CCCO` [Compound 12], for which the Ki at human A2AAR [1] (ref Lambertucci et al. [22]) is 3.9 µM.
Take `Cc1nc2c(N)cccn2n1` [Compound 29]: the inhibition at 300 µM at human A2AAR [2] came to 31%; on human A1AR (setting [7]), 38 ± 6%; at human A3AR it was 44 ± 4%.
As to `Nc1ncnc2c1nc(Br)n2CCO` [Compound 6], the Ki on human A2AAR [1] (ref Lambertucci et al. [22]) is 0.62 µM.
In the case of `CC(C)Cn1cnc2c(N)ncnc21` [Compound 11], at human A2AAR [1] (ref Lambertucci et al. [22]), the Ki was more than 100 µM.
With `Nc1cccn2ncnc12` [Compound 28, [1,2,4]triazolo[1,5-a]pyridin-8-amine], the results for the inhibition at 300 µM at human A2AAR [2] and on human A1AR (setting [7]) were 17% and 22 ± 6%, respectively. At human A3AR, the Ki stood at 153 ± 31 µM.
For the compound `CCn1c(OC(C)C)nc2c(N)ncnc21` [Compound 23], the Ki on human A2AAR [3] (compound retested in a radioligand binding assay at the A2AAR, this work) was 0.095 µM; at human A2AAR [1] (ref Volpini et al. [23]), more than 100 µM. The “fold loss of binding affinity relative to compound 21” value at human A2AAR [3] (from published affinity of 23) is listed as more than 1000 fold. Also, the “inhibition of A2AAR mediated cAMP production” value on human A2AAR [4] is “close to completely inhibit the agonist effect of 1 µM NECA”.
In the case of `CCCn1cnc2c(N)ncnc21` [Compound 13], on human A2AAR [1] (ref Lambertucci et al. [22]), the Ki is 9.6 µM.
Take `CC(=O)Nc1nc2ccccc2s1` [Compound 32, N-(benzo[d]thiazol-2-yl)acetamide]: the Ki on human A2AAR [2] was 79.1 µM and 79 µM; at human A1AR (setting [6]) it was 11.2 ± 2.4 µM; at human A3AR it was 0.81 ± 0.17 µM.
On to `Cc1nc2ncnc(N)n2n1` [Compound 26], for which the Ki on human A2AAR [2] is 78.5 µM. For the same compound, the inhibition at 300 µM stood at 44 ± 4% at human A1AR (setting [7]) and 50 ± 4% on human A3AR.
